Laboratory results published in article PMC7206119, “RIP1 inhibition blocks inflammatory diseases but not tumor growth or metastases” (Cell Death and Differentiation, 2019).

Tests used:
Assay in all cases: biochemical
Parameters in all cases: DiscoverX kinase panel, active-site competition binding (KINOMEscan type), percent of control at one concentration
Conditions in all cases: competition binding, percent of control
[1] = target: RET(M918T) (Homo sapiens, UniProt P07949, M918T)
[2] = target: SNRK (Homo sapiens, UniProt Q9NRH2)
[3] = target: CDKL3 (Homo sapiens, UniProt Q8IVW4)
[4] = target: PIK3C2G (Homo sapiens, UniProt O75747)
[5] = target: ULK3 (Homo sapiens, UniProt Q6PHR2)
ULK3, sequence (Q6PHR2 whole entry): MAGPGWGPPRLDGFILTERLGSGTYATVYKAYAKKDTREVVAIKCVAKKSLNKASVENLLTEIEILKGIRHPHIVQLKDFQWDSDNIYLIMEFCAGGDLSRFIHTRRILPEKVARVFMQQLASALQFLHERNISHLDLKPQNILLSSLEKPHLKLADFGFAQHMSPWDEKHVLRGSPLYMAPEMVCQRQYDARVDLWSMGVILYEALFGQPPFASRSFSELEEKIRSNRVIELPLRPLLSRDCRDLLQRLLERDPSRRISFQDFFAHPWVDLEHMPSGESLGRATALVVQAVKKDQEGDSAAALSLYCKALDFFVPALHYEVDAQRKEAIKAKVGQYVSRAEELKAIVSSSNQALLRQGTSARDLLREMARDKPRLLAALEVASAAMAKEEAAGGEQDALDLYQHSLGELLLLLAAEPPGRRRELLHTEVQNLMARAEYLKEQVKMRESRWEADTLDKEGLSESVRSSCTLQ

[6] = target: EGFR(L747-E749del, A750P) (Homo sapiens, UniProt P00533, A750P/DEL747-749)
[7] = target: PRKD1 (Homo sapiens, UniProt Q15139)
[8] = target: CSNK2A2 (Homo sapiens, UniProt P19784)
[9] = target: T1, DCAMKL1 (Homo sapiens, UniProt O15075)
T1 construct: gene DCLK1
T1 sequence (O15075 whole entry): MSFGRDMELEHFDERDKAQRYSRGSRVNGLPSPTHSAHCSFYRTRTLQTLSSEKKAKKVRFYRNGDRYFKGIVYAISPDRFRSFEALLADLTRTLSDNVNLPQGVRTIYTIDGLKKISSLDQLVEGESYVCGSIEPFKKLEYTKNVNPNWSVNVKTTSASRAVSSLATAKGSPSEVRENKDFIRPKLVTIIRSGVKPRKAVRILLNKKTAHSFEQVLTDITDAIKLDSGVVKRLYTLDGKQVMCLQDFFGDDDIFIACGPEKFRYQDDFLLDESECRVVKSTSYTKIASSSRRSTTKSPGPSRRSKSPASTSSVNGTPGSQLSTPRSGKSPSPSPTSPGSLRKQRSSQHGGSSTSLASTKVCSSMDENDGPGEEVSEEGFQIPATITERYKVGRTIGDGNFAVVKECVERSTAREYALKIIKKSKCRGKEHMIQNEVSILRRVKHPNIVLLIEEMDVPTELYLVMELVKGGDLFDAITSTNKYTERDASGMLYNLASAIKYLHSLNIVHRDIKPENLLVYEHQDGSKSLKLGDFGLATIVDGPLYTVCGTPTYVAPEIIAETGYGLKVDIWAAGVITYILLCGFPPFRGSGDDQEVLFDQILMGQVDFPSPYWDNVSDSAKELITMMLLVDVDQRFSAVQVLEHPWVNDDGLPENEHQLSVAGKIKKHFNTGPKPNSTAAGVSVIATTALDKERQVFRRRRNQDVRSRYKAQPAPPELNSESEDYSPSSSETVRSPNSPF

[10] = target: T2, p38-beta (Homo sapiens, UniProt Q15759)
T2 construct: gene MAPK11
T2 sequence (Q15759 whole entry): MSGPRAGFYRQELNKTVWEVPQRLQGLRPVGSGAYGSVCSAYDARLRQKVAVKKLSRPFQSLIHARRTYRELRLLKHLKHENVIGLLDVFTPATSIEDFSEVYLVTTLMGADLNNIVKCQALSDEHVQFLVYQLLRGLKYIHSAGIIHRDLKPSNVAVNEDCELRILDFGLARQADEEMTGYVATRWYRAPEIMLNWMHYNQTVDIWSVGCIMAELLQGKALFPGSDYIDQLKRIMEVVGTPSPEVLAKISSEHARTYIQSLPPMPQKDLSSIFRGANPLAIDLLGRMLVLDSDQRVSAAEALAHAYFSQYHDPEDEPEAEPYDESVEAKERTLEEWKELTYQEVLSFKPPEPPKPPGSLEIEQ

[11] = target: CSNK1A1 (Homo sapiens, UniProt P48729)
CSNK1A1, sequence (P48729 whole entry): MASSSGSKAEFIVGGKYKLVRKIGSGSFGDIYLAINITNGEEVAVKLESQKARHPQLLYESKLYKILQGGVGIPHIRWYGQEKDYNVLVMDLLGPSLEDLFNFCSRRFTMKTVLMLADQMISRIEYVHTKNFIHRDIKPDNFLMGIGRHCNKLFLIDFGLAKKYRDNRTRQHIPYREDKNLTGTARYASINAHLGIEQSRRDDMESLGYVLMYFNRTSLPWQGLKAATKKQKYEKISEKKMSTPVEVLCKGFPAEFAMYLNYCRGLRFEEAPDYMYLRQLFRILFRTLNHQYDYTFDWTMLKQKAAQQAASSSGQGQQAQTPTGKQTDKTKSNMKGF

[12] = target: LIMK1 (Homo sapiens, UniProt P53667)
[13] = target: FGFR1 (Homo sapiens, UniProt P11362)
[14] = target: EGFR(L747-S752del, P753S) (Homo sapiens, UniProt P00533, DEL747-752/P753S)
[15] = target: MAP3K4 (Homo sapiens, UniProt Q9Y6R4)
[16] = target: T3, DCAMKL3 (Homo sapiens, UniProt Q9C098)
T3 construct: gene DCLK3

[17] = target: T4, RSK1(Kin.Dom.2-C-terminal) (Homo sapiens, UniProt Q15418)
T4 construct: gene RPS6KA1; Kin.Dom.2-C-terminal

[18] = target: AURKB (Homo sapiens, UniProt Q96GD4)
[19] = target: EGFR(T790M) (Homo sapiens, UniProt P00533, T790M)
[20] = target: ALK(C1156Y) (Homo sapiens, UniProt Q9UM73, C1156Y)
ALK(C1156Y), sequence (Q9UM73 whole entry C1156Y): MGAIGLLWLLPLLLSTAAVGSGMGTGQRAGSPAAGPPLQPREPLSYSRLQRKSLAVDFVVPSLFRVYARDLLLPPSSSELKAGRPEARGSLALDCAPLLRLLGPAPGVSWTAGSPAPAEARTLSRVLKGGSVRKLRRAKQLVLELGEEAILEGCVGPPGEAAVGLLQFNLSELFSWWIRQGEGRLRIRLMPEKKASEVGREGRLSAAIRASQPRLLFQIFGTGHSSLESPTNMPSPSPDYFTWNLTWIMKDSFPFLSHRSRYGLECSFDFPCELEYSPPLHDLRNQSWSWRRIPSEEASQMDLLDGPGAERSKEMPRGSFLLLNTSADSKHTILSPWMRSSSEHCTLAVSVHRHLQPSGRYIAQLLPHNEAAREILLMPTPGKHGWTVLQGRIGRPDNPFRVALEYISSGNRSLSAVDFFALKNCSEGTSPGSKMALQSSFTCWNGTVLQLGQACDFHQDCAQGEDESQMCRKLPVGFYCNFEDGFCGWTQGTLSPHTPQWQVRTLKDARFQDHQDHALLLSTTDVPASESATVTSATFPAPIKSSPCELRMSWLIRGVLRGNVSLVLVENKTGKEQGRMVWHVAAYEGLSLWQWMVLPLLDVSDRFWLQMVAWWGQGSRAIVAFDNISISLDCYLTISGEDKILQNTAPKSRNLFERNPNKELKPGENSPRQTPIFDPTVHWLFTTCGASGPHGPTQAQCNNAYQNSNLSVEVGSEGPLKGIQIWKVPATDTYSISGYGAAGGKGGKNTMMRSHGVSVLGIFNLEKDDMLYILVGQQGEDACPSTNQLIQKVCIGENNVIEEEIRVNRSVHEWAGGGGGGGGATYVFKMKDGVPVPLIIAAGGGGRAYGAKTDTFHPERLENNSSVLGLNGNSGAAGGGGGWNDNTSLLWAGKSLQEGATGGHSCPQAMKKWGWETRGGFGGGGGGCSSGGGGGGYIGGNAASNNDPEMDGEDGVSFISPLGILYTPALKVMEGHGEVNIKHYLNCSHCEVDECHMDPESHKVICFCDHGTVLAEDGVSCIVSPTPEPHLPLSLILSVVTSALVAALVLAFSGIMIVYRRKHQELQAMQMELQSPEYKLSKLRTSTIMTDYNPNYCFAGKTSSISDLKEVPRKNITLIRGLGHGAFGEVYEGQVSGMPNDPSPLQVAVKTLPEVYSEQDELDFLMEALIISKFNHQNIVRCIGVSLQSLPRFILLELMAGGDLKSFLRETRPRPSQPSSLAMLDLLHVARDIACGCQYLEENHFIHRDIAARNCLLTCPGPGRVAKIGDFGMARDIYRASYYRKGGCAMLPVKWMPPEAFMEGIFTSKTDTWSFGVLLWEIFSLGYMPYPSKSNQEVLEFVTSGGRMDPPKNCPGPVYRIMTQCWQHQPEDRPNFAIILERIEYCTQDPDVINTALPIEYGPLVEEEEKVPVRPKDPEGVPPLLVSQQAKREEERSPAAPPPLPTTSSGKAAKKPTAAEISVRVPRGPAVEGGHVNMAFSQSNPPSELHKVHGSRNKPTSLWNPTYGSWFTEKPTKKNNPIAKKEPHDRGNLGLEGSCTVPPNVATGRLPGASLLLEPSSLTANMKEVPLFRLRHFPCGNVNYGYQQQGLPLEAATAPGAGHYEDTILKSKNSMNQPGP

[21] = target: CSNK1E (Homo sapiens, UniProt P49674)
CSNK1E, sequence (P49674 whole entry): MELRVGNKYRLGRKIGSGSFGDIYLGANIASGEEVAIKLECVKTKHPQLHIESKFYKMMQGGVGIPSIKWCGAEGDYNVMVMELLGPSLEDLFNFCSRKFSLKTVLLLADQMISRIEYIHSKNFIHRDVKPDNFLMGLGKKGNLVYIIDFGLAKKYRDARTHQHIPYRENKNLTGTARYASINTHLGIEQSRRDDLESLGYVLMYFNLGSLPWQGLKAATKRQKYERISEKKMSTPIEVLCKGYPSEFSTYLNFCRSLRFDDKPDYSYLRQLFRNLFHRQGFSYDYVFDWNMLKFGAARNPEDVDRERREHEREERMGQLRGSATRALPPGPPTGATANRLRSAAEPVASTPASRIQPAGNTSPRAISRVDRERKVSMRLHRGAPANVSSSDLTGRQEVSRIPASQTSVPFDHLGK

RET(M918T), sequence (P07949 whole entry M918T): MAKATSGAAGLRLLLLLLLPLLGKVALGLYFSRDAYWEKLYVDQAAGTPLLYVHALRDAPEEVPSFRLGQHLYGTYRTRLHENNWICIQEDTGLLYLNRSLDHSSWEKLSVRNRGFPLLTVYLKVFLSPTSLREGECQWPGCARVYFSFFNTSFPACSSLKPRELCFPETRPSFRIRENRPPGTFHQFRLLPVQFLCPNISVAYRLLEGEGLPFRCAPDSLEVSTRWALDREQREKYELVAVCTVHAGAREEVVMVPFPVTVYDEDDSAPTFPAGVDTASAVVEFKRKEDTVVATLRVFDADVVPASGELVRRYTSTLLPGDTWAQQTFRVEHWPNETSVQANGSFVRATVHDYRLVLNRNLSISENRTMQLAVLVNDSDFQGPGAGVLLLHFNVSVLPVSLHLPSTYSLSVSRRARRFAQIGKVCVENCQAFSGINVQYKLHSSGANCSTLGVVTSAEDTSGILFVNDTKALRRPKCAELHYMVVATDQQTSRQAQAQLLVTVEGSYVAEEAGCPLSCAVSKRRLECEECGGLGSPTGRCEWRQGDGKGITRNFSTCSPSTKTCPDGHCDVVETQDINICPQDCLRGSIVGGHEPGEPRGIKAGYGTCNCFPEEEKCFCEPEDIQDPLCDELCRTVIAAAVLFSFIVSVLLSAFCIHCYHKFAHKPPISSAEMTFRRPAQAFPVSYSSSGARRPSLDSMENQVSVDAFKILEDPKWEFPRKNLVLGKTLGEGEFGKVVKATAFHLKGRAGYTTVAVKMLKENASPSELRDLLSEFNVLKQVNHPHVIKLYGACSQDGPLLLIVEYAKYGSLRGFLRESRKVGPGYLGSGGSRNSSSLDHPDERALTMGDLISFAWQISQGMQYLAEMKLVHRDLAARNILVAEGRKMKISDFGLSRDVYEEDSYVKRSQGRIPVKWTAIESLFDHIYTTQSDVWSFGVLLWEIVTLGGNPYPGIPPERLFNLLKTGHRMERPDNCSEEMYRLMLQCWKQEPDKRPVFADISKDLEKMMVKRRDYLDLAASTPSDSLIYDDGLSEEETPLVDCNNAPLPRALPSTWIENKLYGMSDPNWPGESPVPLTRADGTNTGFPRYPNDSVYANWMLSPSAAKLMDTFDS

## COc1cc2c(cn1)N(C)C(=O)[C@@H](NC(=O)c1nc3n(n1)[C@H](c1ccccc1)CC3)CC2 [GNE684, (S)-N-((S)-7-methoxy-1-methyl-2-oxo-2,3,4,5-tetrahydro-1H-pyrido[3,4-b]azepin-3-yl)-5-phenyl-6,7-dihydro-5H-pyrrolo[1,2-b][1,2,4]triazole-2-carboxamide]
[1]
  remaining binding at 10 µM: 89%
[2]
  remaining binding at 10 µM: 93%
[3]
  remaining binding at 10 µM: 69%
[4]
  remaining binding at 10 µM: 100%
[5]
  remaining binding at 10 µM: 100%
[6]
  remaining binding at 10 µM: 85%
[7]
  remaining binding at 10 µM: 100%
[8]
  remaining binding at 10 µM: 85%
[9]
  remaining binding at 10 µM: 67%
[10]
  remaining binding at 10 µM: 97%
[11]
  remaining binding at 10 µM: 87%
[12]
  remaining binding at 10 µM: 96%
[13]
  remaining binding at 10 µM: 92%
[14]
  remaining binding at 10 µM: 100%
[15]
  remaining binding at 10 µM: 92%
[16]
  remaining binding at 10 µM: 92%
[17]
  remaining binding at 10 µM: 100%
[18]
  remaining binding at 10 µM: 84%
[19]
  remaining binding at 10 µM: 100%
[20]
  remaining binding at 10 µM: 96%
[21]
  remaining binding at 10 µM: 74%
